Results from patent US10829520B2, “Beta-hairpin peptidomimetics” (POLYPHOR AG, priority 2015, dated 2020).
Where a SMILES comes first, the peptide text is derived from it. Bridges are numbered along the chain shown (N, C = ends). [ ]: non-standard residue; d: D form. Tle = CC(C)(C)[C@H](N)C(=O)O; dDab = NCC[C@@H](N)C(=O)O; Nle = CCCC[C@H](N)C(=O)O; Orn = NCCC[C@H](N)C(=O)O; Dab = NCC[C@H](N)C(=O)O; Dap = NC[C@H](N)C(=O)O; Sar = CNCC(=O)O

Assays:
Assay type in all cases: cell-based
[1] = test system: Escherichia coli ATCC 25922; settings: ATCC 25922
In short: (§1)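 Antibacterial activity is measured as MIC (μg/mL) by standard CLSI microdilution. Inocula of about 10^6 CFU/mL in MH-II broth meet two-fold peptide dilutions in medium with 0.002% Polysorbate 80, and growth is scored visually after 18-20 hours at 35° C.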

[2] = test system: Acinetobacter baumannii 872842; settings: 872842
[3] = test system: Acinetobacter baumannii DSM 30008; settings: DSM 30008
In short: as §1

[4] = test system: Klebsiella pneumoniae 968733; settings: 968733
Escherichia coli 926415 = settings: 926415
[5] = test system: Klebsiella pneumoniae SSI #3010; settings: SSI #3010
In short: as §1

[6] = test system: Pseudomonas aeruginosa ATCC 27853; settings: ATCC 27853
In short: as §1

[7] = test system: human red blood cells (hRBC); assay: Hemolysis of human red blood cells; settings: red cells of human, 1 h
In short: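 Percent hemolysis = OD540 of peptide-treated supernatant relative to the 2.5% Triton X-100 (100%) control, PBS containing 0.001% acetic acid defining 0%. Peptides tested at 100 μg/mL against 20% (v/v) washed human RBC, 1 h, 37 °C, 300 rpm.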

SMILES | Escherichia coli ATCC 25922 MIC [1] [µg/mL] | Acinetobacter baumannii 872842 MIC [2] [µg/mL] | Acinetobacter baumannii DSM 30008 MIC [3] [µg/mL] | Klebsiella pneumoniae 968733 MIC [4] [µg/mL] | Escherichia coli 926415 MIC (Escherichia coli 926415) [µg/mL] | Klebsiella pneumoniae SSI #3010 MIC [5] [µg/mL] | Pseudomonas aeruginosa ATCC 27853 MIC [6] [µg/mL] | Hemolysis at 100 μg/mL [7]; 100 [%] | Hemolysis at 100 μg/mL ([7]; 100 μg/mL) [%]
CCCC[C@@H]1NC(=O)[C@@H]2CCCN2C(=O)[C@H]2CCCN2C(=O)[C@H](CO)NC(=O)[C@H](C)NC(=O)[C@H](C(C)(C)C)NC(=O)[C@H](CCN)NC(=O)[C@H](Cc2c[nH]c3ccccc23)NC(=O)[C@@H](NC(C)=O)CCNC(=O)CC[C@@H](C(=O)N[C@H](CCN)C(=O)N[C@H]2CCNC(=O)[C@H]([C@@H](C)O)NC(=O)[C@H](CCN)NC(=O)[C@H](CCN)NC(=O)[C@H](CC(C)C)NC(=O)[C@@H](CC(C)C)NC(=O)[C@H](CCN)NC2=O)NC(=O)[C@H](CCCN)NC(=O)[C@H](CCN)NC(=O)[C@H](Cc2ccc(O)cc2)NC(=O)[C@H](CO)NC1=O [Ex. 196] (Ac-[Dab]W[Dab][Tle]AS[dP]P[Nle]SY[Dab][Orn]E[dDab][Dab][Dab][dL]L[Dab][Dab]T; lactam 1-14, 16-C) | 0.125 | 0.5 | 0.25 | 0.5 | 0.125 | 0.25 | 1 | <1 | 
CCCC[C@@H]1NC(=O)[C@@H]2CCCN2C(=O)[C@H]2CCCN2C(=O)[C@H](C)NC(=O)[C@H](CO)NC(=O)[C@H](C(C)C)NC(=O)[C@@H](NC(=O)[C@@H](N)Cc2c[nH]c3ccccc23)CSSC[C@@H](C(=O)N(C)CC(=O)N[C@@H](CCN)C(=O)N[C@H](C(=O)N[C@@H](CCN)C(=O)N[C@H]2CCNC(=O)[C@H]([C@@H](C)O)NC(=O)[C@H](CCN)NC(=O)[C@H](CCN)NC(=O)[C@H](CC(C)C)NC(=O)[C@@H](CC(C)C)NC(=O)[C@H](CCN)NC2=O)[C@@H](C)O)NC(=O)[C@H](Cc2ccc(O)cc2)NC(=O)[C@H](CN)NC1=O [Ex. 141] (H-WCVSA[dP]P[Nle][Dap]YC[Sar][Dab]T[Dab][Dab][Dab][dL]L[Dab][Dab]T; disulfide 2-11; lactam 16-C) | 0.0625 | 0.125 | 0.125 | 2 | 0.125 | 0.125 | 2 |  | <1
CCCC[C@@H]1NC(=O)[C@@H]2CCCN2C(=O)[C@H]2CCCN2C(=O)[C@H](CO)NC(=O)[C@H](C)NC(=O)[C@H](C(C)(C)C)NC(=O)[C@@H](NC(=O)[C@H](Cc2ccccc2)NC(C)=O)CSSC[C@@H](C(=O)N[C@@H](CCCN)C(=O)N[C@@H](CCN)C(=O)N[C@H]2CCNC(=O)[C@H]([C@@H](C)O)NC(=O)[C@H](CCN)NC(=O)[C@H](CCN)NC(=O)[C@H](CC(C)C)NC(=O)[C@@H](Cc3ccccc3)NC(=O)[C@H](CCN)NC2=O)NC(=O)[C@H](Cc2ccc(O)cc2)NC(=O)[C@H](CO)NC1=O [Ex. 51] (Ac-FC[Tle]AS[dP]P[Nle]SYC[Orn][Dab][Dab][Dab][dF]L[Dab][Dab]T; disulfide 2-11; lactam 14-C) | 0.25 | 4 | 0.5 | 4 | 2 | 0.5 | 1 |  | <1
CC(C)C[C@@H]1NC(=O)[C@H](CCCNC(=N)N)NC(=O)[C@@H](CCN)NC(=O)[C@H](C(C)C)NC(=O)[C@@H](NC(=O)[C@H](Cc2ccc(O)cc2)NC(=O)[C@H](CO)NC(=O)[C@@H](N)Cc2c[nH]c3ccccc23)CSSC[C@@H](C(=O)N[C@@H](Cc2ccc(O)cc2)C(=O)N[C@@H](CC(N)=O)C(=O)N(C)CC(=O)N[C@@H](CCN)C(=O)N[C@H](C(=O)N[C@@H](CCN)C(=O)N[C@H]2CCNC(=O)[C@H]([C@@H](C)O)NC(=O)[C@H](CCN)NC(=O)[C@H](CCN)NC(=O)[C@H](CC(C)C)NC(=O)[C@@H](CC(C)C)NC(=O)[C@H](CCN)NC2=O)[C@@H](C)O)NC1=O [Ex. 169] (H-WSYCV[dDab]RLCYN[Sar][Dab]T[Dab][Dab][Dab][dL]L[Dab][Dab]T; disulfide 4-9; lactam 16-C) | 0.5 | 1 | 1 | 2 | 0.5 | 0.25 | 1 |  | 1
CCCC[C@@H]1NC(=O)[C@@H]2CCCN2C(=O)[C@H]2CCCN2C(=O)[C@H](CO)NC(=O)[C@H](C)NC(=O)[C@H](C(C)(C)C)NC(=O)[C@@H](NC(=O)[C@H](Cc2c[nH]c3ccccc23)NC(=O)[C@H](CCN)NC(C)=O)CSSC[C@@H](C(=O)N[C@@H](CCCN)C(=O)N[C@H](C(=O)N[C@@H](CCN)C(=O)N[C@H]2CCNC(=O)[C@H]([C@@H](C)O)NC(=O)[C@H](CCN)NC(=O)[C@H](CCN)NC(=O)[C@H](CC(C)C)NC(=O)[C@@H](Cc3ccccc3)NC(=O)[C@H](CCN)NC2=O)[C@@H](C)O)NC(=O)[C@H](Cc2ccc(O)cc2)NC(=O)[C@H](CO)NC1=O [Ex. 36] (Ac-[Dab]WC[Tle]AS[dP]P[Nle]SYC[Orn]T[Dab][Dab][Dab][dF]L[Dab][Dab]T; disulfide 3-12; lactam 16-C) | 0.25 | 0.5 | 0.25 | 0.5 | 0.25 | 0.25 | 0.5 |  | <1
CCCC[C@@H]1NC(=O)[C@@H]2CCCN2C(=O)[C@H]2CCCN2C(=O)[C@H](CO)NC(=O)[C@H](C)NC(=O)[C@H](C(C)(C)C)NC(=O)[C@@H](NC(=O)[C@H](Cc2c[nH]c3ccccc23)NC(C)=O)CSSC[C@@H](C(=O)N[C@H](C)C(=O)N[C@@H](CCN)C(=O)N[C@H](C(=O)N[C@@H](CCN)C(=O)N[C@H]2CCNC(=O)[C@H]([C@@H](C)O)NC(=O)[C@H](CCN)NC(=O)[C@H](CCN)NC(=O)[C@H](CC(C)C)NC(=O)[C@@H](Cc3ccccc3)NC(=O)[C@H](CCN)NC2=O)[C@@H](C)O)NC(=O)[C@H](Cc2ccc(O)cc2)NC(=O)[C@H](CO)NC1=O [Ex. 29] (Ac-WC[Tle]AS[dP]P[Nle]SYC[dA][Dab]T[Dab][Dab][Dab][dF]L[Dab][Dab]T; disulfide 2-11; lactam 16-C) | 0.125 | 0.25 | 0.25 | 1 | 1 | 0.25 | 0.5 |  | <1
CC(=O)N[C@@H](Cc1c[nH]c2ccccc12)C(=O)N[C@@H](CCN)C(=O)N[C@H](C(=O)N[C@H]1CC(=O)NCC[C@@H](C(=O)N[C@@H](Cc2ccc(O)cc2)C(=O)N[C@@H](CCN)C(=O)N[C@H](C(=O)N[C@@H](CCN)C(=O)N[C@@H](CCN)C(=O)N[C@@H](CCN)C(=O)N[C@H]2CCNC(=O)[C@H]([C@@H](C)O)NC(=O)[C@H](CCN)NC(=O)[C@H](CCN)NC(=O)[C@H](CC(C)C)NC(=O)[C@@H](CC(C)C)NC(=O)[C@H](CCN)NC2=O)[C@@H](C)O)NC(=O)[C@H](C(C)C)NC(=O)[C@@H]2CCCN2C(=O)[C@H]2CCCN2C(=O)[C@H](Cc2c[nH]cn2)NC1=O)C(C)(C)C [Ex. 168] (Ac-W[Dab][Tle]DH[dP]PV[Dab]Y[Dab]T[Dab][Dab][Dab][Dab][Dab][dL]L[Dab][Dab]T; lactam 4-9, 16-C) | 0.5 | 1 | 2 | 4 | 0.5 | 1 | 0.25 | 3 | 
CC(=O)N[C@@H](Cc1c[nH]c2ccccc12)C(=O)N[C@H]1CSSC[C@@H](C(=O)N[C@@H](CCN)C(=O)N[C@@H](CCN)C(=O)N[C@@H](CCN)C(=O)N[C@H]2CCNC(=O)[C@H]([C@@H](C)O)NC(=O)[C@H](CCN)NC(=O)[C@H](CCN)NC(=O)[C@H](CC(C)C)NC(=O)[C@@H](Cc3ccccc3)NC(=O)[C@H](CCN)NC2=O)NC(=O)[C@H](Cc2ccc(O)cc2)NC(=O)[C@H]([C@@H](C)O)NC(=O)[C@H](CC(C)C)NC(=O)[C@H](CCCNC(=N)N)NC(=O)[C@H]2CCCN2C(=O)[C@H](C(C)C)NC(=O)[C@H]([C@@H](C)O)NC(=O)[C@H](C(C)C)NC1=O [Ex. 115] (Ac-WCVTV[dP]RLTYC[Dab][Dab][Dab][Dab][Dab][dF]L[Dab][Dab]T; disulfide 2-11; lactam 15-C) | 0.5 | 0.5 | 0.5 | 1 | 0.5 | 0.5 | 0.5 |  | 1
